# System: HLA-A*24
# Experiment: MHC binding assay, UV-ligand exchange with beta2m ELISA (exchange yield), HLA-A*24
# Set-up: species or system human
# Details: binding to HLA-A*24, UV-ligand exchange
# From the text: Candidate peptides for T cell based therapies according to the present invention were further tested for their MHC binding capacity (affinity). The individual peptide-MHC complexes were produced by UV-ligand exchange, where a UV-sensitive peptide is cleaved upon UV-irradiation, and exchanged with the peptide of interest as analyzed. Only peptide candidates that can effectively bind and stabilize the peptide-receptive MHC molecules prevent dissociation of the MHC complexes. To determine the yield of the exchange reaction, an ELISA was performed based on the detection of the light chain (β2m) of stabilized MHC complexes. The assay was performed as generally described in Rodenko et al. (Rodenko et al., 2006).
# 96 well MAXISorp plates (NUNC) were coated over night with 2 ug/ml streptavidin in PBS at room temperature, washed 4× and blocked for 1 h at 37° C. in 2% BSA containing blocking buffer. […] Peptide-MHC monomers of the UV-exchange reaction were diluted 100 fold in blocking buffer. Samples were incubated for 1 h at 37° C., washed four times, incubated with 2 ug/ml HRP conjugated anti-β2m for 1h at 37° C., washed again and detected with TMB solution that is stopped with […]. Absorption was measured at 450 nm. Candidate peptides that show a high exchange yield (preferably higher than 50%, most preferred higher than 75%) are generally preferred for a generation and production of antibodies or fragments thereof, and/or T cell receptors or fragments thereof, as they show sufficient avidity to the MHC molecules and prevent dissociation of the MHC complexes.
row,Substance,"Peptide exchange (MHC class I binding score, peptide exchange yield)"
1,217 (IYISNSIYF; listed as Homo sapiens) [compound 217],++++ (>=75% = ++++)
2,311 (EYLQNLNHI; listed as Homo sapiens) [compound 311],++++ (>=75% = ++++)
3,147 (LYLAFPLAF; listed as Homo sapiens) [compound 147],+++ (50%-75% = +++)
4,219 (SYLKAVFNL; listed as Homo sapiens) [compound 219],+++ (50%-75% = +++)
5,257 (IFIDNSTQPLHF; listed as Homo sapiens) [compound 257],+++ (50%-75% = +++)
6,255 (VYQKIILKF; listed as Homo sapiens) [compound 255],+++ (50%-75% = +++)
7,373 (GYISNGELF; listed as Homo sapiens) [compound 373],+++ (50%-75% = +++)
8,215 (SYVASFFLL; listed as Homo sapiens) [compound 215],++ (20%-49% = ++)
9,227 (IYRFITERF; listed as Homo sapiens) [compound 227],+++ (50%-75% = +++)
10,136 (IYPEWPVVFF; listed as Homo sapiens) [compound 136],+++ (50%-75% = +++)
11,216 (FYVNVKEQF; listed as Homo sapiens) [compound 216],+++ (50%-75% = +++)
12,256 (VFGKSAYLF; listed as Homo sapiens) [compound 256],+++ (50%-75% = +++)
13,192 (RYSTFSEIF; listed as Homo sapiens) [compound 192],+++ (50%-75% = +++)
14,176 (FYINGQYQF; listed as Homo sapiens) [compound 176],+++ (50%-75% = +++)
15,240 (YYFFVQEKI; listed as Homo sapiens) [compound 240],+++ (50%-75% = +++)
16,282 (NYLVDPVTI; listed as Homo sapiens) [compound 282],+++ (50%-75% = +++)
17,381 (KYPASSSVF; listed as Homo sapiens) [compound 381],+++ (50%-75% = +++)
18,280 (TYNPNLQDKL; listed as Homo sapiens) [compound 280],++++ (>=75% = ++++)
19,384 (RYFDVGLHNF; listed as Homo sapiens) [compound 384],+++ (50%-75% = +++)

row,Substance,"Peptide exchange (MHC class I binding score, peptide exchange yield)"
1,185 (QYLVHVNDL; listed as Homo sapiens) [compound 185],++++ (>=75% = ++++)
2,183 (PYLQDVPRI; listed as Homo sapiens) [compound 183],+++ (50%-75% = +++)
3,266 (KYTDWTEFL; listed as Homo sapiens) [compound 266],+++ (50%-75% = +++)
4,196 (GYIRGSWQF; listed as Homo sapiens) [compound 196],++++ (>=75% = ++++)
5,302 (LYLPVHYGF; listed as Homo sapiens) [compound 302],+++ (50%-75% = +++)
6,387 (KYTEKLEEI; listed as Homo sapiens) [compound 387],+++ (50%-75% = +++)
7,376 (VYTPVASRQSL; listed as Homo sapiens) [compound 376],+++ (50%-75% = +++)
8,276 (QYLDVLHAL; listed as Homo sapiens) [compound 276],++++ (>=75% = ++++)
9,224 (PYFFANQEF; listed as Homo sapiens) [compound 224],+++ (50%-75% = +++)
10,210 (IYAGVGEFSF; listed as Homo sapiens) [compound 210],++++ (>=75% = ++++)
11,125 (VFSRDFGLLVF; listed as Homo sapiens) [compound 125],+++ (50%-75% = +++)
12,208 (TYLEKIDGF; listed as Homo sapiens) [compound 208],++++ (>=75% = ++++)
13,152 (KFFDDLGDELLF; listed as Homo sapiens) [compound 152],++ (20%-49% = ++)
14,352 (QYGGDLTNTF; listed as Homo sapiens) [compound 352],+++ (50%-75% = +++)
15,309 (KYYRQTLLF; listed as Homo sapiens) [compound 309],++ (20%-49% = ++)
16,232 (YYLSDSPLL; listed as Homo sapiens) [compound 232],+++ (50%-75% = +++)
17,134 (AYIPTPIYF; listed as Homo sapiens) [compound 134],+++ (50%-75% = +++)
18,169 (NYITGKGDVF; listed as Homo sapiens) [compound 169],+++ (50%-75% = +++)
19,293 (VYPHFSTTNLI; listed as Homo sapiens) [compound 293],++++ (>=75% = ++++)

# Results, then the substance that gave them:
row,"Peptide exchange (MHC class I binding score, peptide exchange yield)",Substance
1,++++ (>=75% = ++++),187 (AYAANVHYL; listed as Homo sapiens) [compound 187]
2,+++ (50%-75% = +++),385 (QYIEELQKF; listed as Homo sapiens) [compound 385]
3,+++ (50%-75% = +++),317 (VFDTSIAQLF; listed as Homo sapiens) [compound 317]
4,++++ (>=75% = ++++),248 (AFPTFSVQL; listed as Homo sapiens) [compound 248]
5,+++ (50%-75% = +++),299 (KYQYVLNEF; listed as Homo sapiens) [compound 299]
6,+++ (50%-75% = +++),285 (VYVGDALLHAI; listed as Homo sapiens) [compound 285]
7,+++ (50%-75% = +++),270 (YYSQESKVLYL; listed as Homo sapiens) [compound 270]
8,++++ (>=75% = ++++),289 (FFHEGQYVF; listed as Homo sapiens) [compound 289]
9,++++ (>=75% = ++++),206 (NYLDVATFL; listed as Homo sapiens) [compound 206]
10,+++ (50%-75% = +++),312 (SYTSVLSRL; listed as Homo sapiens) [compound 312]
11,++++ (>=75% = ++++),149 (SYGTVSQI; listed as Homo sapiens) [compound 149]
12,++ (20%-49% = ++),250 (KYPDIASPTF; listed as Homo sapiens) [compound 250]
13,++++ (>=75% = ++++),298 (AYKSEVVYF; listed as Homo sapiens) [compound 298]
14,++++ (>=75% = ++++),290 (KYGDFKLLEF; listed as Homo sapiens) [compound 290]
15,+++ (50%-75% = +++),225 (TYTNTLERL; listed as Homo sapiens) [compound 225]
16,+++ (50%-75% = +++),200 (VFIHHLPQF; listed as Homo sapiens) [compound 200]
17,++++ (>=75% = ++++),211 (VFKSEGAYF; listed as Homo sapiens) [compound 211]
18,+++ (50%-75% = +++),207 (LYSDAFKFIVF; listed as Homo sapiens) [compound 207]
19,+++ (50%-75% = +++),188 (GYKTFFNEF; listed as Homo sapiens) [compound 188]
20,+++ (50%-75% = +++),133 (KYLEDMKTYF; listed as Homo sapiens) [compound 133]
21,+++ (50%-75% = +++),205 (VYPVVLNQI; listed as Homo sapiens) [compound 205]
22,+++ (50%-75% = +++),118 (KYLNSVQYI; listed as Homo sapiens) [compound 118]
23,+++ (50%-75% = +++),364 (KYLNENQLSQL; listed as Homo sapiens) [compound 364]
24,++++ (>=75% = ++++),357 (QFITSTNTF; listed as Homo sapiens) [compound 357]

# From patent US10130693B2, “Peptides, combination of peptides and scaffolds for use in immunotherapeutic treatment of various cancers” (Immatics Biotechnologies GmbH, priority 2015, dated 2018)
